Laboratory results from US12570697B2, “Cyclic peptide useful in the treatment of cancer” (Syntherix Limited, priority 2019, dated 2026).
Entries after “also recorded” stand apart in the source; their conditions may differ. Square brackets hold non-standard residues; d marks the D form. Ends that are not written are not given here. Sar = CNCC(=O)O

How the values were obtained:
[1] = test system: human non-small cell lung cancer cells (NCIH-460); assay: killing of NCIH-460 cells by CLIPS-cyclised peptides of different warhead length (Table 1); format: cell-based
Description: The inventor undertook testing of the effect of various peptides which were cyclised using CLIPS technology on the killing of human non-small cell lung cancer cells (NCIH-460) in vitro. For each of the peptides, between two and four isomer fractions were received, giving a total of 12 peptide entities tested.
The following warhead lengths, obtained by adding flanking sarcosine residues, were tested: […]

NCI-H460 cells = assay: viability assay of CLIP cyclised peptides on NCI-H460 cells (Example 3, Table 2); format: cell-based, human; conditions: for cytotoxic activity against NCIH460 cells (in words): with and without Nanocin-PRO
Description: The following protocol was used: • 1) NCI-H460 cells were grown in Ham's F12 media supplemented with 10% FBS. • 2) Cells were harvested and seeded into 96-well plates at 500 cells per well. • 3) Peptides were diluted 1:2 from DMSO stock solutions to generate a 9-point dose range from a top concentration of 300 μM. Final DMSO concentration was constant at 1% (v/v). • 4) In line with the supplied Nanocin-PRO protocol, diluted peptides were incubated with Nanocin-PRO in media for 20 minutes prior to addition to cells. Nanocin-PRO was used at a final assay concentration of 0.2 μl per well. • 5) Cells were grown in the presence of peptide for 96 hours at 37° C., 5% CO2 in a humidified atmosphere. • 6) After 96 h, Alamar blue 10% (v/v) was added, incubated for a further 4 h and fluorescent product detected using a BMG FLUOstar plate reader. • 7) Media only background readings were subtracted before data was analysed using a 4-parameter logistic equation in GraphPad Prism.
Viability assays of the CLIP cyclised peptides were performed to examine the effect of four HILRa clipped peptides on the viability of NCIH460 cells (up to three isomers for each of the peptides). […] Results for HILRa 16A, 16B, 16C and HILRa 17A, 17B and 17C are depicted in FIG. 2.
Assays were performed in the presence and absence of the peptide transfection reagent Nanocin-PRO.

[2] = test system: H460 human non-small cell lung cancer cell lines; conditions: cited from earlier work
[3] = 0.2 μl Nanocin-PRO per well, 96 h
[4] = 0.2 μl Nanocin-PRO per well, 96 h, values in brackets approximate

Row | Compound | % inhibition at 1 mM ([1]; 0.2 μl Nanocin-PRO per well) [%] | % inhibition at 1 mM ([1]; No Nanocin-PRO) [%] | % inhibition at 300 μM (NCI-H460 cells; [3]) [%] | % inhibition at 300 μM (NCI-H460 cells; No Nanocin-PRO, 96 h) [%] | other results
1 | Ac-CPKGPRPC-NH2 [HILRa-CL-04] | 8.5 | 0.0 |  |  | 
2 | Ac-C[Sar][Sar]PRGPKP[Sar][Sar]C-NH2 (cysteine pairing not given here) [HILRa-CL-09] | 3.0 | 1.1 |  |  | 
3 | COc1ccc2c(C[C@@H]3NC(=O)[C@@H](NC(C)=O)CSCc4cccc(c4)CSC[C@@H](C(N)=O)NC(=O)CC(c4ccc5ccccc5c4)NC(=O)[C@H](CCCNC(=N)N)NC(=O)C4N(CCC4(C)C)C(=O)CN(C)C(=O)[C@H](CCCNC(=N)N)NC3=O)cc(=O)oc2c1 (single isomer, unassigned) [HILRa CL-15-C, Ac-C[Dac]R[Sar][dmPro]R[Nap]C-NH2] |  |  | 88.5 | 23.8 | 
4 | Ac-CDacHcaSarNapHcaNapC-NH2 [HILRa CL-16-B] |  |  | 0.0 | 14.1 | cytotoxic activity against NCIH460 cells (in words) (NCI-H460 cells): completely removed the cell killing effect; also recorded: low detectable cancer cell-necrotic activity
5 | Ac-CPKGPKPC-NH2 [HILRa-CL-10] | 0.8 | 2.2 |  |  | 
6 | COc1ccc2c(C[C@@H]3NC(=O)[C@@H](NC(C)=O)CSCc4cccc(c4)CSC[C@@H](C(N)=O)NC(=O)CC(c4ccc5ccccc5c4)NC(=O)[C@H](CCCNC(=N)N)NC(=O)CC(c4ccc5ccccc5c4)NC(=O)CN(C)C(=O)[C@H](CCCNC(=N)N)NC3=O)cc(=O)oc2c1 (single isomer, unassigned) [HILRa CL-17-C, Ac-C[Dac]R[Sar][Nap]R[Nap]C-NH2] |  |  | 99.4 | 99.6 | IC50 (NCI-H460 cells; [4]): ~880 nM
7 | Ac-C[Sar]PKGPKP[Sar]C-NH2 (CXPKGPKPXC; N-acetyl; C-amide; sarcosines; HILRa-CL-11 Synthesized; Sar (2)..(2) X = Sarcosine; Sar (9)..(9) X = Sarcosine) | 1.2 | 0.0 |  |  | 
8 | Ac-CDacHcaSarNapHcaNapC-NH2 [HILRa CL-16-A] |  |  | 0.0 | 9.9 | cytotoxic activity against NCIH460 cells (in words) (NCI-H460 cells): completely removed the cell killing effect; also recorded: low detectable cancer cell-necrotic activity
9 | COc1ccc2c(C[C@@H]3NC(=O)[C@@H](NC(C)=O)CSCc4cccc(c4)CSC[C@@H](C(N)=O)NC(=O)CC(c4ccc5ccccc5c4)NC(=O)[C@H](CCCNC(=N)N)NC(=O)CC(c4ccc5ccccc5c4)NC(=O)CN(C)C(=O)[C@H](CCCNC(=N)N)NC3=O)cc(=O)oc2c1 (single isomer, unassigned) [HILRa CL-17-A, Ac-C[Dac]R[Sar][Nap]R[Nap]C-NH2] |  |  | 98.7 | 90.3 | 
10 | Ac-CDacHcaSarNapHcaNapC-NH2 [HILRa CL-16-C] |  |  | 0.5 | 26.9 | cytotoxic activity against NCIH460 cells (in words) (NCI-H460 cells): completely removed the cell killing effect; also recorded: low detectable cancer cell-necrotic activity
11 | Ac-CDacHcaSarProHcaNapC-NH2 [HILRa CL-14-B] |  |  | 6.8 | 5.8 | cytotoxic activity against NCIH460 cells (in words) (NCI-H460 cells): low detectable cancer cell-necrotic activity
12 | Ac-CDacHcaSarProHcaNapC-NH2 [HILRa-CL-14] |  |  |  |  | cytotoxic activity against NCIH460 cells (in words) (NCI-H460 cells): negligible activity
13 | CC(=O)O[C@H]1C(=O)[C@@]2(C)[C@H]([C@H](OC(=O)c3ccccc3)[C@]3(O)C[C@H](OC(=O)[C@H](O)[C@@H](NC(=O)c4ccccc4)c4ccccc4)C(C)=C1C3(C)C)[C@]1(OC(C)=O)CO[C@@H]1C[C@@H]2O [Paclitaxel, reference compound] |  |  |  |  | IC50 (NCI-H460 cells; Homo sapiens, NCI-H460, Paclitaxel control, No Nanocin-PRO column): 4.95 nM; IC50 ([1]; Homo sapiens, NCI-H460, Paclitaxel control, printed in the 0.2 μl Nanocin-PRO per well column): 7.4 nM
14 | COc1ccc2c(C[C@@H]3NC(=O)[C@@H](NC(C)=O)CSCc4cccc(c4)CSC[C@@H](C(N)=O)NC(=O)CC(c4ccc5ccccc5c4)NC(=O)[C@H](CCCNC(=N)N)NC(=O)C4N(CCC4(C)C)C(=O)CN(C)C(=O)[C@H](CCCNC(=N)N)NC3=O)cc(=O)oc2c1 (single isomer, unassigned) [HILRa CL-15-A, Ac-C[Dac]R[Sar][dmPro]R[Nap]C-NH2] |  |  | 84.5 | 22.7 | 
15 | COc1ccc2c(C[C@@H]3NC(=O)[C@@H](NC(C)=O)CSCc4cccc(c4)CSC[C@@H](C(N)=O)NC(=O)CC(c4ccc5ccccc5c4)NC(=O)[C@H](CCCNC(=N)N)NC(=O)C4N(CCC4(C)C)C(=O)CN(C)C(=O)[C@H](CCCNC(=N)N)NC3=O)cc(=O)oc2c1 (single isomer, unassigned) [HILRa CL-15-B, Ac-C[Dac]R[Sar][dmPro]R[Nap]C-NH2] |  |  | 87.5 | 20.2 | 
16 | Ac-C[Sar][Sar]PKGPKP[Sar][Sar]C-NH2 (CXXPKGPKPXXC; N-acetyl; C-amide; sarcosines; HILRa-CL-12 Synthesized; Sar (2)..(2) X = Sarcosine; Sar (3)..(3) X = Sarcosine; Sar (10)..(10) X = Sarcosine; Sar (11)..(11) X = Sarcosine) | 0.8 | 0.0 |  |  | 
17 | Ac-CPRGPKPC-NH2 [HILRa-CL-07] | 1.5 | 0.0 |  |  | 
18 | Ac-C[Sar]PKGPRP[Sar]C-NH2 (CXPKGPRPXC; N-acetyl; C-amide; sarcosines; HILRa-CL-05 Synthesized; Sar (2)..(2) X = Sarcosine; Sar (9)..(9) X = Sarcosine) | 1.1 | 0.0 |  |  | 
19 | Ac-C[Sar]PRGPKP[Sar]C-NH2 (CXPRGPKPXC; N-acetyl; C-amide; sarcosines; HILRa-CL-08 Synthesized; Sar (2)..(2) X = Sarcosine; Sar (9)..(9) X = Sarcosine) | 3.2 | 0.0 |  |  | 
20 | Ac-C[Sar][Sar]PKGPRP[Sar][Sar]C-NH2 (CXXPKGPRPXXC; N-acetyl; C-amide; sarcosines; HILRa-CL-06 Synthesized; Sar (2)..(2) X = Sarcosine; Sar (3)..(3) X = Sarcosine; Sar (10)..(10) X = Sarcosine; Sar (11)..(11) X = Sarcosine) | 6.1 | 0.0 |  |  | 
21 | Ac-CDacHcaSarNapHcaNapC-NH2 [HILRa-CL-16] |  |  |  |  | cytotoxic activity against NCIH460 cells (in words) (NCI-H460 cells): negligible activity
22 | Ac-CPRGPRPC-NH2 [HILRa-CL-01, CLIPS-cyclised peptide] | 12.9 | 0.0 |  |  | % inhibition at 1 mM ([1]; 0.2 μl Nanocin-PRO per well, listed as ‘clipped’ Pro-Arg-Gly-Pro-Arg-Pro warhead): over 10%
23 | COc1ccc2c(C[C@@H]3NC(=O)[C@@H](NC(C)=O)CSCc4cccc(c4)CSC[C@@H](C(N)=O)NC(=O)CC(c4ccc5ccccc5c4)NC(=O)[C@H](CCCNC(=N)N)NC(=O)CC(c4ccc5ccccc5c4)NC(=O)CN(C)C(=O)[C@H](CCCNC(=N)N)NC3=O)cc(=O)oc2c1 (single isomer, unassigned) [HILRa CL-17-B, Ac-C[Dac]R[Sar][Nap]R[Nap]C-NH2] |  |  | 99.3 | 99.2 | IC50 (NCI-H460 cells; [4]): ~2100 nM
24 | Ac-CDacHcaSarProHcaNapC-NH2 [HILRa CL-14-A] |  |  | 9.9 | 10.5 | cytotoxic activity against NCIH460 cells (in words) (NCI-H460 cells): low detectable cancer cell-necrotic activity
25 | PRGPRPVALKLALKLAL [HILR-001] |  |  |  |  | IC50 ([2]; as described in WO 2009/112536): 200000 nM; killing of H460 cells versus primary diploid human fibroblasts, keratinocytes or MRC5 cells ([2]; in vitro, WO 2009/112536): selective killing
26 | Ac-C[Sar]PRGPRP[Sar]C-NH2 (CXPRGPRPXC; N-acetyl; C-amide; sarcosines; HILRa-CL-02 Synthesized; Sar (2)..(2) X = Sarcosine; Sar (9)..(9) X = Sarcosine) | 2.0 | 0.0 |  |  | 
27 | Ac-C[Sar][Sar]PRGPRP[Sar][Sar]C-NH2 (CXXPRGPRPXXC; N-acetyl; C-amide; sarcosines; HILRa-CL-03 Synthesized; Sar (2)..(2) X = Sarcosine; Sar (3)..(3) X = Sarcosine; Sar (10)..(10) X = Sarcosine; Sar (11)..(11) X = Sarcosine) | 9.5 | 0.0 |  |  | 
28 | COc1ccc2c(C[C@@H]3NC(=O)[C@@H](NC(C)=O)CSCc4cccc(c4)CSC[C@@H](C(N)=O)NC(=O)CC(c4ccc5ccccc5c4)NC(=O)[C@H](CCCNC(=N)N)NC(=O)C4N(CCC4(C)C)C(=O)CN(C)C(=O)[C@H](CCCNC(=N)N)NC3=O)cc(=O)oc2c1 (single isomer, unassigned) [HILRa CL-15-D, Ac-C[Dac]R[Sar][dmPro]R[Nap]C-NH2] |  |  | 89.1 | 25.2 | 
